Assay results: the supplement of paper PMC4862054

Experiments:
Assay in all cases: normalised viability (% of control), CellTiter-Blue; higher = more viable cells (about 100 = DMSO control)
Details in all cases: incubation time: 72 h
[1] = system: DU-4475
Method: (§1)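 DSRT, CellTiter-Blue viability, 72 h incubation. Signal is normalised to DMSO and benzethonium chloride controls. Value is the normalised response at dose 8.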

[2] = system: CAL-51
Method: as §1

[3] = system: HDQ-P1
Method: as §1

[4] = system: CAL-148
Method: as §1

[5] = system: CAL-85-1
Method: as §1

[6] = system: MDA-MB-453
Method: as §1

[7] = system: DU-4475; remark: listed apart in the source
Method: (§2)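 DSRT, CellTiter-Blue viability, 72 h incubation. Signal is normalised to DMSO and benzethonium chloride controls. Value is the normalised response at dose 6.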

[8] = system: CAL-51; remark: listed apart in the source
Method: as §2

[9] = system: HDQ-P1; remark: listed apart in the source
Method: as §2

[10] = system: CAL-148; remark: listed apart in the source
Method: as §2

[11] = system: CAL-85-1; remark: listed apart in the source
Method: as §2

[12] = system: MDA-MB-453; remark: listed apart in the source
Method: as §2

[13] = system: DU-4475; remark: listed apart in the source
Method: (§3)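 DSRT, CellTiter-Blue viability, 72 h incubation. Signal is normalised to DMSO and benzethonium chloride controls. Value is the normalised response at dose 7.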

[14] = system: CAL-51; remark: listed apart in the source
Method: as §3

[15] = system: HDQ-P1; remark: listed apart in the source
Method: as §3

[16] = system: CAL-148; remark: listed apart in the source
Method: as §3

[17] = system: CAL-85-1; remark: listed apart in the source
Method: as §3

[18] = system: MDA-MB-453; remark: listed apart in the source
Method: as §3

Row | SMILES | normalised viability [1] [%] | normalised viability [2] [%] | normalised viability [3] [%] | normalised viability [4] [%] | normalised viability [5] [%] | normalised viability [6] [%] | further results
1 | S=c1[nH]cnc2nc[nH]c12 [Mercaptopurine] (3000 nM) | 114 | 90.1 | 88.9 | 90.8 | 83.3 | 115 | 
2 | Nc1nc(Cl)nc2c1ncn2[C@H]1C[C@H](O)[C@@H](CO)O1 [Cladribine] (300 nM) | 102 | 104 | 96.3 | 103 | 92.9 | 96.9 | 
3 | C[C@]1(c2nc3c(C(N)=O)cccc3[nH]2)CCCN1 [Veliparib] (3000 nM) | 86.2 | 108 | 82.9 | 91.8 | 92.2 | 109 | 
4 | COc1cccc2c1C(=O)c1c(O)c3c(c(O)c1C2=O)C[C@@](O)(C(=O)CO)C[C@@H]3O[C@H]1C[C@H](N)[C@H](O)[C@H](C)O1 [Doxorubicin] (300 nM) | 39.4 | 33.5 | 58 | 31.9 | 54 | 70.6 | 
5 | CC[C@]1(O)C[C@@H]2CN(CCc3c([nH]c4ccccc34)[C@@](C(=O)OC)(c3cc4c(cc3OC)N(C)[C@H]3[C@@](O)(C(=O)OC)[C@H](OC(C)=O)[C@]5(CC)C=CCN6CC[C@]43[C@@H]65)C2)C1 [Vinblastine] (300 nM) | 20.9 | 16.9 | 33.5 | 17.7 | 30.8 | 24.4 | 
6 | CS(=O)(=O)c1ccc(C(=O)Nc2ccc(Cl)c(-c3ccccn3)c2)c(Cl)c1 [Vismodegib] (3000 nM) | 112 | 108 | 103 | 83.3 | 96.4 | 95 | 
7 | N#CC[C@H](C1CCCC1)n1cc(-c2ncnc3[nH]ccc23)cn1 [Ruxolitinib] (3000 nM) | 114 | 105 | 105 | 87.7 | 114 | 94 | 
8 | CO[C@H]1C[C@@H]2CC[C@@H](C)[C@@](O)(O2)C(=O)C(=O)N2CCCC[C@H]2C(=O)O[C@H]([C@H](C)C[C@@H]2CC[C@@H](OC(=O)C(C)(CO)CO)[C@H](OC)C2)CC(=O)[C@H](C)/C=C(\C)[C@@H](O)[C@@H](OC)C(=O)[C@H](C)C[C@H](C)/C=C/C=C/C=C/1C [Temsirolimus] (300 nM) | 50.3 | 37.2 | 69.1 | 33.7 | 57.4 | 26.2 | 
9 | Cc1ccc(F)c(NC(=O)Nc2ccc(-c3cccc4[nH]nc(N)c34)cc2)c1 [Linifanib] (300 nM) | 105 | 101 | 111 | 104 | 103 | 113 | 
10 | CN1CCC(COc2cnc(-c3cccc(Cn4nc(-c5cccc(C#N)c5)ccc4=O)c3)nc2)CC1 (3000 nM) | 108 | 84.4 | 85.4 | 79.8 | 87.3 | 63.8 | 
11 | C=CC[C@@H]1/C=C(\C)C[C@H](C)C[C@H](OC)[C@H]2O[C@@](O)(C(=O)C(=O)N3CCCC[C@H]3C(=O)O[C@H](/C(C)=C/[C@@H]3CC[C@@H](O)[C@H](OC)C3)[C@H](C)[C@@H](O)CC1=O)[C@H](C)C[C@@H]2OC [Tacrolimus] (300 nM) |  |  |  |  |  |  | normalised viability [7]: 99.6%; normalised viability [8]: 103%; normalised viability [9]: 119%; normalised viability [10]: 106%; normalised viability [11]: 101%; normalised viability [12]: 111%
12 | C=CCNC1=C2C[C@@H](C)C[C@H](OC)[C@H](O)[C@@H](C)/C=C(\C)[C@H](OC(N)=O)[C@@H](OC)/C=C\C=C(/C)C(=O)NC(=CC1=O)C2=O [Tanespimycin] (300 nM) |  |  |  |  |  |  | normalised viability [7]: 1.35%; normalised viability [8]: 48.2%; normalised viability [9]: 28.8%; normalised viability [10]: 19.7%; normalised viability [11]: 47.2%; normalised viability [12]: 8.64%
13 | COc1cc(Nc2ncc3c(n2)-c2ccc(Cl)cc2C(c2c(F)cccc2OC)=NC3)ccc1C(=O)O [MLN8237] (1000 nM) |  |  |  |  |  |  | normalised viability [13]: 16.5%; normalised viability [14]: 27.2%; normalised viability [15]: 54.2%; normalised viability [16]: 36.9%; normalised viability [17]: 69.1%; normalised viability [18]: 68.9%
14 | COc1cccc2cc(-c3nc([C@H]4CC[C@H](C(=O)O)CC4)n4ncnc(N)c34)[nH]c12 [OSI-027] (300 nM) |  |  |  |  |  |  | normalised viability [7]: 82.5%; normalised viability [8]: 74.3%; normalised viability [9]: 37.9%; normalised viability [10]: 76.1%; normalised viability [11]: 75.5%; normalised viability [12]: 66.1%
15 | CN(C)C/C=C/C(=O)Nc1cc2c(Nc3ccc(F)c(Cl)c3)ncnc2cc1O[C@H]1CCOC1 [Afatinib] (3000 nM) | 92.7 | 86.2 | 19.4 | 58.2 | 39.6 | 30 | 
16 | Cc1c2oc3c(C)ccc(C(=O)N[C@@H]4C(=O)N[C@H](C(C)C)C(=O)N5CCC[C@H]5C(=O)N(C)CC(=O)N(C)[C@@H](C(C)C)C(=O)O[C@@H]4C)c3nc-2c(C(=O)N[C@@H]2C(=O)N[C@H](C(C)C)C(=O)N3CCC[C@H]3C(=O)N(C)CC(=O)N(C)[C@@H](C(C)C)C(=O)O[C@@H]2C)c(N)c1=O [Dactinomycin] (300 nM) | 1.26 | 5.05 | 9.3 | 11.4 | 2.52 | 6.05 | 
